We go through 36 molecules from the PolyMetriX glass transition set.

In the case of `*C(=O)Nc1ccc(C2(c3ccc(N4C(=O)c5ccc(*)cc5C4=O)cc3)CCC(CC)CC2)cc1` (repeat unit), the glass transition temperature is 312.00 °C. To `*C(=O)c1cc(C(=O)c2ccc3c(c2)C(=O)N(c2cccc(N4C(=O)c5ccc(*)cc5C4=O)c2)C3=O)cc(C(C)(C)C)c1` (repeat unit) belongs 264.50 °C. Regarding `*C(=O)c1ccc2c(c1)C(=O)N(c1ccc(-c3cc(-c4ccc(OCCCC#N)cc4)cc(-c4ccc(N5C(=O)c6ccc(*)cc6C5=O)cc4)n3)cc1)C2=O` (repeat unit), the glass transition temperature is 342.00 °C. In turn, `*C(=O)c1ccc2c(c1)C(=O)N(c1ccc(-c3ccc(N4C(=O)c5ccc(*)cc5C4=O)c(C)c3)cc1C)C2=O` (repeat unit) yielded a glass transition temperature of 365.00 °C. The molecule `*C(=O)c1ccc2c(c1)C(=O)N(c1ccc(C(C)(C)c3ccc(C(C)(C)c4ccc(N5C(=O)c6ccc(*)cc6C5=O)cc4)cc3)cc1)C2=O` (repeat unit) had a glass transition temperature of 322.00 °C. On to `*C(=O)c1ccc2c(c1)C(=O)N(c1cccc(C(=O)c3ccc(Oc4ccc(N5C(=O)c6ccc(*)cc6C5=O)cc4)cc3)c1)C2=O` (repeat unit), for which the glass transition temperature was 251.00 °C. `*C(=O)c1ccc2c(c1)C(=O)N(c1cccc(Cc3ccc(Cc4cccc(N5C(=O)c6ccc(*)cc6C5=O)c4)cc3)c1)C2=O` (repeat unit) gave a glass transition temperature of 240.00 °C.

On to `*C(=O)c1cccc(C(=O)c2ccc3c(c2)C(=O)N(c2cccc(N4C(=O)c5ccc(*)cc5C4=O)c2)C3=O)c1` (repeat unit), for which the glass transition temperature stood at 259.50 °C.

`*CCCCCC(=O)Oc1ccc(C(C)(C)c2ccc(C(C)(C)c3ccc(OC(=O)c4ccc5c(c4)C(=O)N(*)C5=O)cc3)cc2)cc1` (repeat unit) had a glass transition temperature of 104.00 °C. Regarding `*CCCCCCCCCCCC(=O)Oc1ccc(C(C)(C)c2ccc(OC(=O)c3ccc4c(c3)C(=O)N(*)C4=O)cc2)cc1` (repeat unit), the glass transition temperature worked out at 93.00 °C. Turning to `*Nc1ccc(C(C)(C)c2ccc(C(C)(C)c3ccc(Nc4ccc(C(O)(c5ccccc5)c5ccc(C(O)(c6ccccc6)c6ccc(*)cc6)cc5)cc4)cc3)cc2)cc1` (repeat unit), the glass transition temperature is 177.00 °C. For `*Nc1ccc(C(C)(C)c2ccc(NC(=O)c3cc(C(*)=O)cc(N4C(=O)C5C6CCC(C6)C5C4=O)c3)cc2)cc1` (repeat unit), the glass transition temperature turned out to be 311.00 °C. In the case of `*Nc1ccc(C(C)(C)c2ccc(NC(=O)c3cc(C(*)=O)cc(N4C(=O)C5CC=CCC5C4=O)c3)cc2)cc1` (repeat unit), the glass transition temperature came to 308.00 °C.

Take `*Nc1ccc(C(C)(C)c2cccc(C(C)(C)c3ccc(NC(=C(C#N)C#N)c4ccc(C(*)=C(C#N)C#N)cc4)cc3)c2)cc1` (repeat unit): the glass transition temperature amounted to 208.00 °C. To `*Oc1cc(C(C)(C)C)c(Oc2ccc(C(=O)Nc3ccc(C(C)(C)c4ccc(NC(=O)c5ccc(*)cc5)c(C)c4)cc3C)cc2)cc1C(C)(C)C` (repeat unit) belongs 275.00 °C; to `*Oc1ccc(C(C)(C)c2ccc(OC(=O)CCCCC(*)=O)c(C)c2)cc1C` (repeat unit), 33.50 °C. `*Oc1ccc(C(C)(C)c2ccc(OC(=O)Nc3cccc(P(=O)(c4ccccc4)c4cccc(NC(*)=O)c4)c3)cc2)cc1` (repeat unit) registered a glass transition temperature of 62.00 °C. The molecule `*Oc1ccc(C(C)(C)c2ccc(OC(=O)OCCCCCOC(*)=O)cc2)cc1` (repeat unit) showed a glass transition temperature of 49.50 °C. Take `*Oc1ccc(C(C)(C)c2ccc(OC(=O)OCCCOC(*)=O)cc2)cc1` (repeat unit): the glass transition temperature is 68.10 °C. As to `*Oc1ccc(C(CC)(c2ccccc2)c2ccc(OC(=O)CCCCCCCCC(*)=O)cc2)cc1` (repeat unit), the glass transition temperature stood at 88.00 °C.

Regarding `*Oc1ccc(C2(c3ccc(OC(=O)CCC(*)=O)cc3)c3cc(OC)ccc3-c3ccc([N+](=O)[O-])cc32)cc1` (repeat unit), the glass transition temperature was 230.00 °C. In turn, `*Oc1ccc(C2(c3ccc(OC(=O)CCCC(*)=O)cc3)c3cc(OC)ccc3-c3ccc([N+](=O)[O-])cc32)cc1` (repeat unit) had a glass transition temperature of 197.00 °C. As for `*Oc1ccc(Oc2ccc(Nc3ccc(S(=O)(=O)c4ccc(Nc5ccc(*)cc5)cc4)cc3)cc2)cc1` (repeat unit), the glass transition temperature came to 144.60 °C. As for `*c1ccc(-c2cc(C(C)(C)C)c(Oc3ccc(N4C(=O)c5ccc6c7c(ccc(c57)C4=O)C(=O)N(*)C6=O)cc3C(F)(F)F)c(C(C)(C)C)c2)cc1` (repeat unit), the glass transition temperature was 456.00 °C. In turn, `*c1ccc(C(C)(C)c2ccc(C(C)(C)c3ccc(N4C(=O)c5ccc(Oc6ccc7cc(Oc8ccc9c(c8)C(=O)N(*)C9=O)ccc7c6)cc5C4=O)cc3)cc2)cc1` (repeat unit) came in with a glass transition temperature of 246.00 °C. For `*c1ccc(C(C)(C)c2ccc(N3C(=O)c4ccc(Oc5ccc6c(c5)C(=O)N(*)C6=O)cc4C3=O)cc2)cc1` (repeat unit), the glass transition temperature was 265.00 °C. To `*c1ccc(C(C)(C)c2ccc(N3C(=O)c4ccc(Oc5ccc6cc(Oc7ccc8c(c7)C(=O)N(*)C8=O)ccc6c5)cc4C3=O)cc2)cc1` (repeat unit) belongs 236.00 °C. To `*c1ccc(N(c2ccc(C#N)cc2)c2ccc(N3C(=O)c4ccc(Oc5ccc(C(c6ccc(Oc7ccc8c(c7)C(=O)N(*)C8=O)cc6)(C(F)(F)F)C(F)(F)F)cc5)cc4C3=O)cc2)cc1` (repeat unit) belongs 234.00 °C.

In turn, `*c1ccc(N(c2ccc(C#N)cc2)c2ccc(N3C(=O)c4ccc(Oc5ccc(C6(c7ccc(Oc8ccc9c(c8)C(=O)N(*)C9=O)cc7)CCCCC6)cc5)cc4C3=O)cc2)cc1` (repeat unit) had a glass transition temperature of 243.00 °C. The same measure for `*c1ccc(NC2CC(=O)N(c3ccc(-c4sc(-c5ccc(N6C(=O)CC(Nc7ccc(-c8nc(C#N)c(C#N)nc8*)cc7)C6=O)cc5)c(-c5ccccc5)c4-c4ccccc4)cc3)C2=O)cc1` (repeat unit): 231.00 °C. `*c1ccc(Nc2c(F)c(F)c(-c3c(F)c(F)c(Nc4ccc(S(*)(=O)=O)cc4)c(F)c3F)c(F)c2F)cc1` (repeat unit) had a glass transition temperature of 332.00 °C. As for `*c1ccc(Nc2ccc(C(c3ccc(Nc4ccc(S(*)(=O)=O)cc4)cc3)(C(F)(F)F)C(F)(F)F)cc2)cc1` (repeat unit), the glass transition temperature amounted to 145.00 °C. `*c1ccc(Nc2ccc(C3(c4ccc(Nc5ccc(S(*)(=O)=O)cc5)c(F)c4)c4ccccc4-c4ccccc43)cc2F)cc1` (repeat unit) displayed a glass transition temperature of 145.00 °C. The molecule `*c1ccc2c(c1)C(=O)N(c1ccc(-c3cc(-c4ccc(OCCCC#N)cc4)cc(-c4ccc(N5C(=O)c6ccc(C(*)(C(F)(F)F)C(F)(F)F)cc6C5=O)cc4)n3)cc1)C2=O` (repeat unit) came in with a glass transition temperature of 339.00 °C. The same measure for `*c1ccc2c(c1)C(=O)N(c1ccc(-c3ccc(N4C(=O)c5ccc(C(*)(C(F)(F)F)C(F)(F)F)cc5C4=O)c(OCCN(CC)c4ccc(C(C#N)=C(C#N)C#N)cc4)c3)cc1OCCN(CC)c1ccc(C(C#N)=C(C#N)C#N)cc1)C2=O` (repeat unit): 222.00 °C; for `*c1ccc2c(c1)C(=O)N(c1cccc(C(C)(C)c3ccc(N4C(=O)c5ccc(C(*)(C(F)(F)F)C(F)(F)F)cc5C4=O)cc3)c1)C2=O` (repeat unit): 260.00 °C.
